From article PMC6368574, “Probing the Inhibition of Microtubule Affinity Regulating Kinase 4 by N-Substituted Acridones” (Scientific Reports, 2019)
Like-named read-outs stand apart in the source and are kept apart here.

Tests used:
[1] = target: T1, recombinant MARK4 (Homo sapiens, UniProt Q96L34); assay: Fluorescence binding (quenching, modified Stern-Volmer)
T1 construct: made in house; host or cells: bacterial cells (Luria-Bertani broth, IPTG induction)
T1 sequence (Q96L34 1-752): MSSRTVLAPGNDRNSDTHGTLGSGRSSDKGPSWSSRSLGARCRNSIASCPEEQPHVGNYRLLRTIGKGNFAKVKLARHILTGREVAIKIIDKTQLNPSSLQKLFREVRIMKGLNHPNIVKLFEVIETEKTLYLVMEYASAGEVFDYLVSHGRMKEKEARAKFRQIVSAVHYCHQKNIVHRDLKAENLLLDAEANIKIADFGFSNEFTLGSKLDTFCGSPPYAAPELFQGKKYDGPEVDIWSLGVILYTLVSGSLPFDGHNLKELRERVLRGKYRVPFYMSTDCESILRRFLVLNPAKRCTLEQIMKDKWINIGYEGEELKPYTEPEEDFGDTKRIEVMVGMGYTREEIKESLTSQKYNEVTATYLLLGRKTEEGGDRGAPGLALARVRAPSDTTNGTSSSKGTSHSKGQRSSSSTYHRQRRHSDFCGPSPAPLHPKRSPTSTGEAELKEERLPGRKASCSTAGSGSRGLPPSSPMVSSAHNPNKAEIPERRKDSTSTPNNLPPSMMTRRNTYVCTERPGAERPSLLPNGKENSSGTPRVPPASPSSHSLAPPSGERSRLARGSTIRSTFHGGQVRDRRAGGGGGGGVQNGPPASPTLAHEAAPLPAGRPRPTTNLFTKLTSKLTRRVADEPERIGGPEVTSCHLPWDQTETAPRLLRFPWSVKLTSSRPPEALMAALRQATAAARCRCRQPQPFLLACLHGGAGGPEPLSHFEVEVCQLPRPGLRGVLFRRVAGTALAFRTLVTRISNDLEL
Procedure: To determine the binding affinities of the synthesized acridones with MARK4, we used fluorescence emission spectra measurements. Protein sample was excited at 280 nm and emission was measured in 300–400 nm range with increasing concentrations of each acridone derivative (0–100 µM). A significant decrease in fluorescence intensity of MARK4 with increasing concentrations of each compound was fitted in the modified Stern-Volmer equation to calculate the binding constant, Ka and the number of binding sites per protein molecule (n). All the synthesized acridones have been screened (Supplementary Fig. S6, S7 and Table S3) and those with the highest affinity have been selected (compounds 5, 7b, 7d, 7f and 7h) for further evaluation (Fig. 3). The binding constants of compound 5, 7b, 7d, 7f and 7h were estimated as 6.3 × 10^4 M^−1, 1.0 × 10^6 M^−1, 1.0 × 10^6 M^−1, 1.9 × 10^6 M^−1, and 3.1 × 10^5 M^−1, respectively (Fig. 3).
Figure 3 Fluorescence binding studies of compound 5, 7b, 7d, 7f and 7h with MARK4. (A) Fluorescence emission spectra of MARK4 (10 µM) with increasing concentrations of the respective compound (5, 7b, 7d, 7f and 7h). Excitation wavelength was fixed at 280 nm and emission was recorded in 300–400 nm range. (B) Modified Stern-Volmer plot obtained from fluorescence quenching of MARK4 by compound 5, 7b, 7d, 7f and 7h, respectively. It was used to calculate binding affinity (Ka) and number of binding sites (n).
Binding affinities of synthesized acridone derivatives with recombinant MARK4 was carried out by observing the fluorescence intensity change of emission spectrum of MARK4 by following our previously published protocol[44],[45]. Each titration of protein was performed in triplicates and the average was taken for analysis. A significant decreased in fluorescence intensity of protein with increase in the concentration of acridone derivatives were used as the criteria for deducing the binding constant (Ka) as well as number of binding sites (n) present on the protein molecule using the modified Stern-Volmer equation[46]:1 log(Fo−F)/F=logKa+nlog[L] where, Fo = Fluorescence intensity of native protein, F = Fluorescence intensity of protein in the presence of ligand, Ka = Binding constant, n = number of binding sites, L = concentration of ligand. The values for Ka and n were derived from the intercept and slope, respectively.

[2] = tested on: panel of kinases of CAMK family; assay: Single dose kinase inhibition profiling (ADP-Glo); type: biochemical; details: single dose of 10 µM
Excerpt: The selectivity of kinase inhibitors is commonly evaluating them against a panel of closely related kinases based on the hypothesis that off-target interfaces are more likely to be associated with same/different families of kinases with similar amino acid sequence. So, we evaluated the fraction of kinase targets that are within the same kinase family (CAMK family). […] These kinase selectivity results signify the use of these compounds as potential and selective inhibitors towards MARK4.
Figure 7 Kinase selectivity and tau-phosphorylation assay. Kinase selectivity results of (A) compound 7b, (B) compound 7d, (C) compound 7f. The selected panel of kinases was incubated with 10 µM dose of selected compounds and analyzed for percent activity values. The percent kinase activity was calculated in the compound-containing reactions and plotted in terms of percent kinase activity inhibition. (D) Representative flow cytometry histogram of SH-SY5Y cell fractions stained with phosphorylated anti-tau antibodies, each histogram represents the phosphorylation status of tau under different treatments as mentioned in inset.
In vitro profiling of the twenty five members of CAMK family (CAMK-1 and CAMK-2) of kinases was performed with the help of kinase screening kit by following the manufacturer’s protocols (Promega, Madison, USA). Briefly, add desired concentration of each compound (10 µM) to corresponding well of 384-well assay plate. Consecutively, 2 µl of kinase working stock solution was added to each wells of assay plate. Gently mix the reaction mixture on a plate shaker for 2 minutes, centrifuge the assay plate to bring mixture of reagents to the bottom of the wells. Incubate the plate at room temperature (25 °C) for 10 minutes. […] After the completion of reaction, measure the luminescence using an integration time of 0.5 seconds per well. Using net luminescence of the no-compound control (negative control) reactions to represent 100% kinase activity, the percent kinase activity was calculated in the compound-containing reactions and plotted in terms of percent kinase activity inhibition.

[3] = Table S3, fluorescence binding, read-out: Binding affinity (Ka) (converted)

| Kd ([1]; fluorescence quenching, MARK4 10 µM, excitation 280 nm, read-out: binding constant, Ka (converted)) [nM] | Kd [1, 3] [nM] | SMILES | within-family kinase selectivity [2] |
| --- | --- | --- | --- |
| – | 526 | Cc1ccc(NC(=O)Cn2c3ccccc3c(=O)c3cc(C)ccc32)cc1 [Compound 7f, 2-(2-Methyl-9-oxoacridin-10(9H)-yl)-N-(p-tolyl)acetamide] | more strongly inhibits MARK4 as compared to other kinases of same family |
| – | 3230 | COc1ccccc1NC(=O)Cn1c2ccccc2c(=O)c2cc(C)ccc21 [Compound 7h, N-(2-methoxyphenyl)-2-(2-methyl-9-oxoacridin-10(9H)-yl)acetamide] | – |

More lines, now with the values behind:

| SMILES | Kd ([1]; fluorescence quenching, MARK4 10 µM, excitation 280 nm, read-out: binding constant, Ka (converted)) [nM] | Kd [1, 3] [nM] | within-family kinase selectivity [2] |
| --- | --- | --- | --- |
| COC(=O)Cn1c2ccccc2c(=O)c2cc(C)ccc21 [Compound 5, Methyl 2-(2-methyl-9-oxoacridin-10(9H)-yl)acetate] | 15900 | – | – |
| Cc1ccc2c(c1)c(=O)c1ccccc1n2CC(=O)NCc1ccccc1 [Compound 7b, N-benzyl-2-(2-methyl-9-oxoacridin-10(9H)-yl)acetamide] | – | 1000 | more strongly inhibits MARK4 as compared to other kinases of same family |
| COc1ccc(CNC(=O)Cn2c3ccccc3c(=O)c3cc(C)ccc32)cc1 [Compound 7d, N-(4-methoxybenzyl)-2-(2-methyl-9-oxoacridin-10(9H)-yl)acetamide] | – | 1000 | more strongly inhibits MARK4 as compared to other kinases of same family |
